Series [1] relates to acute radiation-induced dermatitis. Put plainly: Blinded clinical dermatitis scoring in mouse radiation dermatitis model. Format: in vivo, Balb/c mice. The following applies: 150 mg/mL CBD.
Series [2] in a line: Body weight change in irradiated mice. The series is classed as in vivo, Balb/c mice. On the procedure: A study was performed on mice to determine the efficacy of topically-dosed CBD in an olive oil vehicle for the treatment of acute radiation-induced dermatitis. Three different CBD dosages were used— 30 mg/mL (3 wt %), 120 mg/mL (12 wt %), and 250 mg/mL (25 wt %).
144 female Balb/c mice with an average starting body weight (±SEM) of 17.96±0.12 grams were randomized into six (6) groups of 24 animals each, as follows:
The control group (Group 1) was not irradiated. The animals in Groups 2-6 were anesthetized via a single intraperitoneal injection of xylazine and ketamine prior to being administered a single dose of 30 Grays (Gy) of radiation directed at a 2 cm×4 cm patch of shaved dorsal skin on Day 0. Radiation was generated by a 160 kVp (15-ma) X-ray source at a focal distance of 10 cm, hardened with a 0.35 mm Cu filtration system at a rate of approximately 3.2 Gy/minute.
Dosing for animals in Groups 3-6 began on Day 0 immediately after radiation. Treatments were administered topically (0.1 mL per animal) daily from Days 0-28.
Starting on Day 8 and continuing every other day thereafter (Days 8-28), each animal was evaluated for skin redness and dermatitis, and photographed for subsequent blinded scoring of dermatitis at the completion of the study. Body weight was taken daily.

Series [3] can be described thus: LDH cytotoxicity assay in 3D in vitro skin model. Format: cell-based. The following applies: no UV, topical 24 h. Here is the method:
(§1) A 3D in vitro skin model containing epidermal keratinocytes and dermal fibroblasts was used. Some tissues were irradiated with 200 mJ UVB/cm^2. Test materials were applied topically for 24 hours (after UVB exposure) and an MTT assay was used to check the viability of cells. The following treatment groups were used: • olive oil (no CBD); • CBD in olive oil in concentrations of 30, 60, 120, and 250 mg/mL; • No treatment; and • Triton-X® as positive control.
(§2) Cytotoxicity was assessed with a lactate dehydrogenase (LDH) assay using media collected from the wells of the tissues. Increased LDH activity is an indicator of damaged or dead cells.
(§3) The results are provided in the following Table A, with the untreated group defining 0% cytotoxicity and Triton-X defining 100% cytotoxicity. Lower cytotoxicity is better. * indicates p≤0.05 and ** indicates p≤0.01 statistical significance after performing unpaired t-test.

Series [4] deals with 3D in vitro skin model containing epidermal keratinocytes and dermal fibroblasts. The experiment in a line: LDH cytotoxicity assay in 3D in vitro skin model. Format: cell-based. Particulars: light or radiation study, UV (200 mJ UVB/cm^2), topical 24 h. On the procedure: as §1, §2, §3

The structures appear in SMILES notation.

For `C=C(C)[C@@H]1CCC(C)=C[C@H]1c1c(O)cc(CCCCC)cc1O` [CBD, 2-[(1R,6R)-6-Isopropenyl-3-methylcyclohex-2-en-1-yl]-5-pentylbenzene-1,3-diol], the “% Days ≥2” value in series [1] is 61.22%. Further, in series [2] (30 mg/mL and 120 mg/mL CBD groups, topical daily Days 0-28, FIG. 1), the “Percent weight change over time” value was “most closely followed the curve of the naïve group”. Moreover, the “Percent weight change, difference between CBD-treated groups and the other three groups” value in series [2] (three CBD-treated groups (30, 120, 250 mg/mL)) was “not found to be statistically significant”. In series [3] (30 mg/mL CBD in olive oil, untreated=0%, Triton-X=100%), this molecule came in with a cytotoxicity at 24 h, 30 mg/mL of 4%. Also, the cytotoxicity at 24 h, 60 mg/mL in series [3] (60 mg/mL CBD in olive oil) was 4%. In series [3] (120 mg/mL CBD in olive oil), this molecule returned a cytotoxicity at 24 h, 120 mg/mL of 5%. Moreover, the cytotoxicity at 24 h, 250 mg/mL in series [3] (250 mg/mL CBD in olive oil) came to 11%. Besides, in series [4] (30 mg/mL CBD in olive oil), the cytotoxicity at 30000 µg/mL was found to be 17%. In series [4] (60 mg/mL CBD in olive oil), this molecule yielded a cytotoxicity at 60000 µg/mL of 19%. For the same molecule, the cytotoxicity at 120000 µg/mL in series [4] (120 mg/mL CBD in olive oil) was 16%. This molecule also came in with a cytotoxicity at 250000 µg/mL in series [4] (250 mg/mL CBD in olive oil) of 16%.

The record behind these values is US12059393B2, “Compositions for topical treatment of radiation dermatitis” (Akos Biosciences, Inc, priority 2022, dated 2024).
